Test [1] has as its system sporadic PD patient fibroblasts. As to the kind of experiment: Mitochondrial membrane potential (MMP, TMRM) in sporadic PD patient fibroblasts. The format is cell-based. The conditions noted are these: Homo sapiens, Fibroblast, 24 h. As for the experimental part: (§1) Fibroblasts were cultured in DMEM (Invitrogen) and routinely subcultured every 3-5 days using trypsin to dissociate them.
Fibroblasts were cultured and plated into a Griener black 384 pClear® plate at 10000 cells per well in 50 μl of media volume. The plates are left overnight in an incubator to allow the fibroblasts to adhere to the plate surface. The following morning the Glucose based medium is replaced with 25 μl of Galactose based media. The plates were then dosed with the compounds using an ECHO® 550 liquid handling system. The wells were dosed to provide an 8-point concentration range of 0.06 nM-300 nM of compound. After dosing the wells are topped up with a further 25 μl of Galactose based medium and then left in an incubator for 24 hours. After 24 hours, the medium is removed from the wells and replaced with 25 ul phenol free Minimal essential medium with 100 nM TMRM (Sigma) and 10 μM Hoechst Stain (Sigma). The plate is returned to the incubator for another hour after which the stain medium is removed and replaced with 25 ul Phenol free MEM. The plate is then imaged using an IN Cell high content microscope (GE Healthcare) with 10 fields of view per well in 2 channels, Cy3 excitation 542 nm, emission 604-64 nm; and the DAPI excitation 350 nm, emission 450-55 nm at 37° C. with CO2. After imaging the plate is disposed of and the images are Data mined using the INCell developer Toolkit (GE Healthcare).
(§2) After the assays had been repeated in triplicate per line and compound the data was then inputted into Graph pad Prism 7 software suite where a dose response curve is generated using the default “[Agonist] vs response (three parameters)” equation.
(§3) From this EC50 values, lowest response and maximal response were taken and used to calculate the Geometric mean between the 5 different lines assessed.
The mitochondrial membrane potential was measured in fibroblasts from 6 (Table 1) or 3 (Table 2) patients with sporadic Parkinson's disease when treated with Compounds of the invention or Comparator compounds. The results are shown in Tables 1 and 2, where “Bottom”=max response with lowest dose of compound (0.06 nM) and “top”=max response with highest dose of compound (300 nM).

For test [2] the test system is unchanged. Put plainly: Cellular ATP levels (ATPlite, normalised to CyQUANT DNA content) in sporadic PD patient fibroblasts. Format: cell-based. Particulars: Homo sapiens, Fibroblast, 24 h. The procedure: as §1
The ATP protocol is generally as described in Mortiboys et al, “Mitochondrial function and morphology are impaired in parkin-mutant fibroblasts”, Ann Neurol. 2008 November; 64(5):555-65. Briefly, fibroblasts were cultured as and plated into white 384 well plates with 5000 cells per well in 50 μl of media volume. The plates are left overnight in an incubator to allow the fibroblasts to adhere to the plate surface. The following morning the Glucose based medium is replaced with 25 μl of Galactose based medium. The compounds are added to the plates using a ECHO 550 liquid handling system. The wells were dosed to provide an 8-point concentration range of 0.06 nM-300 nM of compound. After dosing the wells are topped up with a further 25 μl of Galactose based medium and then left in an incubator for 24 hours. Following this incubation the medium is removed from the plate and the wells are washed twice with sterile PBS. The wells are filled with 25 μl of Sterile PBS followed by 12.5 μl of Lysis solution from the ATPlite™ Luminescence ATP detection assay system (Perkin Elmer), including 16 cell free wells to use as blank controls. The plate is then placed on a rotary shaker for 5 mins at 700 rpm. Following the shaking 12.5 μl of ATP substrate solution (Perkin Elmer) is added to each well and a further 5 min of shaking. The plate is then placed in darkness for 10 minutes prior to reading. Using a PHERAStar® plate reader, luminescence intensity is recorded. Following the ATP assay the plates are immediately assayed for DNA content in a CyQUANT® assay.
Immediately following The ATP assay DNA content is assessed with the CyQUANT® NF Cell Proliferation Assay Kit (ThermoFisher). CyQUANT® buffer is prepared immediately before the assay and is comprised of 1 ul CyQUANT® dye per ml×1 HBSS solution. 12.5 ul of CyQUANT® buffer is added to each well. Plate left in incubator for 1 hour then read on a PHERAStar® Plate reader with excitation at 497 nm and emission at 520 nm. ATP Quantification for each well is determined using the following formula: […]
as §2, §3
Cellular ATP levels were measured in fibroblasts from 6 (Table 3) or 3 (Table 4) patients with sporadic Parkinson's disease when treated with Compounds of the invention or Comparator compounds. The results are shown in Tables 3 and 4, where “Bottom”=max response with lowest dose of compound (0.06 nM) and “top”=max response with highest dose of compound (300 nM).
(In general: Cellular ATP, detected with luciferase, serves as a proxy for viable cell number.)

The term EC50 denotes the concentration giving half of the maximal effect.

For `C[C@H](CCC(=O)O)[C@H]1CC[C@H]2[C@@H]3[C@@H](O)C[C@@H]4C[C@@H](O)C(F)(F)C[C@]4(C)[C@H]3CC[C@]12C` [Compound 7, 2,2-difluoro-3β,7β-dihydroxy-5β-cholanic acid], the values for the activity at 60 pM in test [1] (read-out: MMP Bottom (% of vehicle treated)) and in test [2] (read-out: Cellular ATP levels Bottom (% of vehicle treated)) were 100% and 112%, respectively. The values for the EC50 in test [1] (read-out: MMP EC50 (nM)) and in test [2] (read-out: Cellular ATP levels EC50 (nM)) were 4.07 nM and 0.429 nM, respectively. The activity at 0.3 µM in test [1] (read-out: MMP Top (% of vehicle treated)) amounted to 114%; in test [2] (read-out: Cellular ATP levels Top (% of vehicle treated)), 172%.

The values are drawn from patent publication US20220073557A1, “FLUORINATED BILE ACIDS” (NZP UK LIMITED, priority 2018, published 2022).
